Measured values as given in patent publication US20230146675A1, “PYRIMIDO[5,4-d]PYRIMIDINE DERIVATIVES AS ENT INHIBITORS FOR THE TREATMENT OF CANCERS, AND COMBINATION THEREOF WITH ADENOSINE RECEPTOR ANTAGONISTS” (ITEOS BELGIUM SA, priority 2020, published 2023).
pIC50: −log10 of the molar value.

Biological target: T1, Human phosphodiesterase-11A (Homo sapiens, UniProt Q9HCR9)
T1 construct: host or cells: Sf9 cells
Experiment: PDE11A (h) assay
Assay type: biochemical
Experimental: The test compound (compound 72), reference compound or water (control) were added to a buffer containing 40 mM Tris/HCl (pH 7.4) and 8 mM MgCl2, 450 nM cAMP and 0.25 μCi [3H]cAMP. Thereafter, the reaction was initiated by addition of the enzyme (about 4 ng) and the mixture was incubated for 15 min at 22° C. For basal control measurements, the enzyme was omitted from the reaction mixture. Following incubation SPA beads were added. After 30 min at 22° C. under shaking, the amount of [3H]5′AMP was quantified with a scintillation counter (Topcount, Packard). The results were expressed as a percent inhibition of the control enzyme activity. The standard inhibitory reference compound was milrinone, which was tested in each experiment at several concentrations to obtain an inhibition curve from which its IC50 value was calculated. • Human phosphodiesterase-11A quantified by measuring the formation of 5′AMP from cAMP using a human recombinant enzyme expressed in Sf9 cells.
The test compound (compound 72), reference compound or water (control) were added to a buffer containing 40 mM Tris/HCl (pH 7.4) and 8 mM MgCl2, 450 nM cAMP and 0.25 μCi [3H]cAMP. […] After 30 min at 22° C. under shaking, the amount of [3H]5′AMP was quantified with a scintillation counter (MicroBeta, Perkin Elmer). The results were expressed as a percent inhibition of the control enzyme activity.

T1 sequence (Q9HCR9 whole entry): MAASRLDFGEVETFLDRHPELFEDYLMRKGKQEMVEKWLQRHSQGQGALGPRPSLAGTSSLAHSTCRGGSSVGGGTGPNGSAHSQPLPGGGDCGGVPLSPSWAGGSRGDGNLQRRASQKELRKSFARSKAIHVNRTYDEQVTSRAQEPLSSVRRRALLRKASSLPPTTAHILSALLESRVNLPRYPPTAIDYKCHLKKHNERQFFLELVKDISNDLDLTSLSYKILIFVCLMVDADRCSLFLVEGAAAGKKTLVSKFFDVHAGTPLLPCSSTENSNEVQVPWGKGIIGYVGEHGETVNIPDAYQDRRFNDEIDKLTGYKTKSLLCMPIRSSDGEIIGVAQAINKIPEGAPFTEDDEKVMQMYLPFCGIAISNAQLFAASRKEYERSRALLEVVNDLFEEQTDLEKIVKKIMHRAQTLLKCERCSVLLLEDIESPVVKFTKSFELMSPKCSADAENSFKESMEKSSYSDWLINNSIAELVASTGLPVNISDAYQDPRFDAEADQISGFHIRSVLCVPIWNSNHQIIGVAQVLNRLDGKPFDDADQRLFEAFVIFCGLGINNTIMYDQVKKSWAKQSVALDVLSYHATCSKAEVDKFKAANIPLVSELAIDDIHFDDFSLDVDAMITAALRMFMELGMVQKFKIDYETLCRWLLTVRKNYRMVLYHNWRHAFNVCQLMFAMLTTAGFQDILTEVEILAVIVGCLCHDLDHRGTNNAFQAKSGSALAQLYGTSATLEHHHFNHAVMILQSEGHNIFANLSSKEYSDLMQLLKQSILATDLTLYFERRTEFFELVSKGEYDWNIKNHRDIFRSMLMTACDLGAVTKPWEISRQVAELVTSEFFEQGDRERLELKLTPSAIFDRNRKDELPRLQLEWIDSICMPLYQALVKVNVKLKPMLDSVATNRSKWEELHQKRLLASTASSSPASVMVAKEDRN

pIC50: < 5.00 | potency for PDE11A as compared to dipyridamole: reduced as compared to dipyridamole
Compound: COCCN(CCOC)c1nc(N2CCN(C)C(=O)C2)c2nc(N(CCOC)CCOC)nc(N3CCC(OC)CC3)c2n1 [Compound 72, 4-(2,6-bis(bis(2-methoxyethyl)amino)-8-(4-methoxypiperidin-1-yl)pyrimido[5,4-d]pyrimidin-4-yl)-1-methylpiperazin-2-one]
